We go through seven compounds from the supplement of paper PMC11061612.

Assay [1] concerns M14 (Melanoma). The assay is described as follows: combination Emax (second highest fraction inhibited in the dose matrix, 72 h); higher = more inhibition; extreme values may be limits of the assay. A digest of the protocol: (§1)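 Cell lines grown in DMEM/F12 or RPMI with 10% FBS were plated in 1536-well plates and held 24 hours at 37°C, 5% CO2 before 72 hours of exposure to two-drug dose matrices, with DMSO typically at 0.2%. CellTiter-Glo 2.0 luminescence gave viability, which was converted to inhibition. Vehicle wells were set to 0 and blank wells to 1. Combination Emax is the second-highest inhibition in the matrix, and Bliss excess is the observed combination effect minus the expected EA + EB − EA·EB, where EA and EB are the single-agent effects.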

The test system of assay [2] is BT-474 (Breast Carcinoma). The assay is described as follows: Bliss excess, mean over the matrix (fraction); higher = more synergy. A digest of the protocol:
as §1

Assay [3] relates to SBC-5 (Small Cell Lung Carcinoma). The description is as above. The method in brief: as §1
Assay [4] relates to Daudi (Burkitt's Lymphoma). The assay is described as above. A digest of the protocol:
as §1

Assay [5] deals with NCI-H2170 (Squamous Cell Lung Carcinoma). The assay is described as above. A digest of the protocol: as §1
For assay [6], the system named is IGROV-1 (Ovarian Carcinoma). The description is as above. The method in brief:
as §1

Assay [7] concerns NCI-H1048 (Small Cell Lung Carcinoma). The assay is described as above. A digest of the protocol: as §1
The next assay concerns HT-144 (Melanoma). Described as above. The method in brief:
as §1

Assay [8] relates to GRANTA-519 (B-Cell Non-Hodgkin's Lymphoma). Described as above. The method in brief:
as §1

Assay [9] has as its system M14 (Melanoma). The assay is described as above. A digest of the protocol:
as §1

Assay [10] has as its system NCI-H1944 (Lung Adenocarcinoma). The assay is described as above. A digest of the protocol:
as §1

The subject of assay [11] is OCI-M1 (Acute Myeloid Leukemia). The assay is described as above. A digest of the protocol:
as §1

Assay [12] has as its system HT-3 (Cervical Carcinoma). Described as above. The method in brief:
as §1

The test system of assay [13] is SUP-HD1 (Hodgkin's Lymphoma). Described as above. The method in brief:
as §1

The test system of assay [14] is JJN-3 (Plasma Cell Myeloma). The assay is described as above. The method in brief: as §1
The subject of assay [15] is RS4-11 (B-Lymphoblastic Leukemia). Described as above. The method in brief: as §1
For assay [16], the system named is NCI-H1975 (Lung Adenocarcinoma). The description is as above. A digest of the protocol:
as §1

Assay [17] has as its system RVH-421 (Melanoma). The assay is described as follows: combination Emax (second highest fraction inhibited in the dose matrix, 72 h); higher = more inhibition; extreme values may be limits of the assay. A digest of the protocol:
as §1

Assay [18] has as its system NTERA-2-cl-D1 (Other Solid Carcinomas). The assay is described as follows: Bliss excess, mean over the matrix (fraction); higher = more synergy. A digest of the protocol:
as §1

Assay [19] deals with RVH-421 (Melanoma). The description is as above. A digest of the protocol: as §1

As to `C=CCn1c(=O)c2cnc(Nc3ccc(N4CCN(C)CC4)cc3)nc2n1-c1cccc(C(C)(C)O)n1` [AZD1775] + C1CN(CCC1(C(=O)N[C@@H](CCO)C2=CC=C(C=C2)Cl)N)C3=NC=NC4=C3C=CN4 [Capivasertib] (first compound max 3 µM, partner max 3 µM), in the assay with M14 (Melanoma) [1], the “combination Emax” value came out at 0.766. Further, the Bliss excess was 0.0145 in assay [2]; 0.0256 in assay [3]; 0.0313 in assay [4]; -0.0454 in assay [5]; -0.0435 in assay [6]; -0.0301 in [7]. Besides, the Bliss excess is 0.0014 in the assay on HT-144 (Melanoma); -0.0163 in [8]; 0.0065 in the assay with M14 (Melanoma) [9]; 0.0207 in assay [10]; 0.0245 in assay [11]; -0.0073 in [12]. Besides, the Bliss excess is -0.0378 in [13], -0.0417 in [14], 0.0201 in assay [15] and -0.0668 in assay [16].

In the case of `Cc1cc2ncnn2cc1Nc1ncc2c(n1)n(C1CCOCC1)c(=O)n2C` [AZD7648] + C=CCn1c(=O)c2cnc(Nc3ccc(N4CCN(C)CC4)cc3)nc2n1-c1cccc(C(C)(C)O)n1 [AZD1775] (first compound max 10 µM, partner max 1 µM), the “combination Emax” value with RVH-421 (Melanoma) [17] was 0.289. The Bliss excess in assay [18] was -0.0791; in assay [2] it was 0.0103; in assay [3], -0.0136; in [4], -0.0101; in assay [5], -0.0972; in assay [6], -0.0431. The Bliss excess was -0.0505 in [7]; 0.0458 in the assay on HT-144 (Melanoma); -0.0126 in assay [8]; -0.0005 in [10]; -0.044 in [11]; 0.0039 in the assay with RVH-421 (Melanoma) [19]. The Bliss excess in assay [12] is 0.0055; in [13], -0.0943; in assay [14], -0.0726; in assay [15], 0.0667; in [16] it was -0.0107.

Regarding `Cc1cc2ncnn2cc1Nc1ncc2c(n1)n(C1CCOCC1)c(=O)n2C` [AZD7648] + CCN(CCO)CCCOc1ccc2c(Nc3cc(CC(=O)Nc4cccc(F)c4)[nH]n3)ncnc2c1 [AZD2811] (first compound max 10 µM, 7x7, partner max 1 µM), in the assay on RVH-421 (Melanoma) [17], the “combination Emax” value amounted to 0.299. Besides, the Bliss excess was 0.012 in [18]; -0.0214 in [2]; 0.057 in [3]; 0.0652 in assay [4]; 0.0187 in assay [5]; -0.115 in [6]. Besides, the Bliss excess was -0.0197 in assay [7]; 0.0088 in the assay on HT-144 (Melanoma); 0.0287 in assay [8]; 0.0709 in [10]; 0.0449 in [11]; -0.0193 with RVH-421 (Melanoma) [19]. Further, the Bliss excess in assay [12] is 0.0276; in assay [13] it was 0.0506; in assay [14], 0.0202; in [15], -0.0355; in [16], 0.008.

Consider `Cc1cc2ncnn2cc1Nc1ncc2c(n1)n(C1CCOCC1)c(=O)n2C` [AZD7648] + CN(C)CCCOc1ccc(-c2ccc3ncc4c(c3c2)n(C2CCOCC2)c(=O)n4C)cn1 [AZD0156] (first compound max 10 µM, 7x7, partner max 1 µM), for which the “combination Emax” value in the assay with RVH-421 (Melanoma) [17] was 0.274. Further, the Bliss excess is -0.0248 in [18]; 0.0241 in assay [2]; 0.0236 in assay [3]; 0.0327 in [4]; 0.009 in assay [5]; -0.0328 in assay [6]. Also, the Bliss excess in [7] is 0.0121; in the assay with HT-144 (Melanoma), 0.0013; in assay [8], 0.0266; in [10], -0.0039; in assay [11], 0.0385; in the assay on RVH-421 (Melanoma) [19] it was -0.0099. The Bliss excess was 0.0226 in assay [12]; -0.0306 in assay [13]; -0.0058 in [14]; 0.0397 in [15]; -0.0071 in assay [16].

As to `Cc1cc2ncnn2cc1Nc1ncc2c(n1)n(C1CCOCC1)c(=O)n2C` [AZD7648] + C[C@@H]1COCCN1C2=NC(=NC(=C2)C3(CC3)[S@](=N)(=O)C)C4=C5C=CNC5=NC=C4 [AZD6738] (first compound max 10 µM, 7x7, partner max 10 µM), the “combination Emax” value with RVH-421 (Melanoma) [17] turned out to be 0.322. The Bliss excess was 0.0533 in assay [18]; 0.0245 in assay [2]; 0.0284 in assay [3]; 0.0285 in assay [4]; -0.0153 in assay [5]; -0.08 in assay [6]. The Bliss excess was 0.0425 in assay [7]; 0.0349 in the assay with HT-144 (Melanoma); -0.0479 in [8]; 0.0055 in [10]; 0.0125 in [11]; 0.0381 in the assay on RVH-421 (Melanoma) [19]. Also, the Bliss excess in [12] was 0.0076; in assay [13], -0.0375; in [14], -0.0051; in [15], -0.058; in assay [16] it was 0.015.

`Cc1cc2ncnn2cc1Nc1ncc2c(n1)n(C1CCOCC1)c(=O)n2C` [AZD7648] + O=C(c1cc(Cc2n[nH]c(=O)c3ccccc23)ccc1F)N1CCN(C(=O)C2CC2)CC1 [Olaparib] (first compound max 10 µM, 7x7, partner max 10 µM): in the assay on RVH-421 (Melanoma) [17], the “combination Emax” value turned out to be 0.0825. Moreover, the Bliss excess in [18] is 0.0101; in [2] it was -0.0457; in assay [3], -0.034; in assay [4] it was -0.0336; in assay [5], -0.0052; in [6], -0.0782. For the same compound, the Bliss excess was -0.0593 in [7]; -0.0519 in the assay on HT-144 (Melanoma); -0.0416 in assay [8]; -0.033 in assay [10]; -0.0248 in assay [11]; -0.0684 in the assay on RVH-421 (Melanoma) [19]. Further, the Bliss excess in [12] is -0.0518; in assay [13], 0.0862; in assay [14], -0.008; in assay [15] it was -0.0831; in assay [16], 0.0135.

As to `COc1cc2c(cc1OCCCCCOc1cc3c(cc1OC)C(=O)N1C=C(C)C[C@H]1C=N3)N=C[C@@H]1CC(C)=CN1C2=O` [SG3199] + O=C(c1cc(Cc2n[nH]c(=O)c3ccccc23)ccc1F)N1CCN(C(=O)C2CC2)CC1 [Olaparib] (first compound max 0.001 µM, 7x7, partner max 10 µM), in the assay on RVH-421 (Melanoma) [17], the “combination Emax” value stood at 0.0596. Further, the Bliss excess in [18] is -0.0586; in assay [2], -0.0487; in assay [3], -0.0193; in assay [4], -0.0273; in [5], -0.009; in assay [6] it was -0.0101. For the same compound, the Bliss excess in assay [7] was -0.0432; with HT-144 (Melanoma), -0.0443; in assay [8], -0.0226; in assay [10], -0.0259; in assay [11] it was -0.0065; in the assay with RVH-421 (Melanoma) [19] it was -0.0773. The Bliss excess is -0.0306 in assay [12]; 0.1 in [13]; 0.0128 in [14]; 0.0338 in assay [15]; -0.0171 in [16].
